The target in one experiment is T1, CDK4/cyclin D3 (Homo sapiens, UniProt P11802).
T1 construct: purchased Carna Biosciences, Inc. QS S Assist CDK4/Cyclin D3_FP Kit
Put plainly: Human CDK4/cyclin D3 inhibitory activity (QS S Assist CDK4/Cyclin D3_FP Kit, IMAP fluorescent polarization). Format: biochemical. The note with it: read-out: CDK4 Activity symbol. How it is done: Human CDK4/Cyclin D3 Inhibitory Activity
Each compound was analyzed for CDK4/cyclin D3 inhibitory activity with an assay kit (QS S Assist CDK4/Cyclin D3_FP Kit, available from Carna Biosciences, Inc.). This assay kit determines kinase activity on the basis of the IMAP technology by Molecular Devices. Specifically, the kinase activity is determined through quantification of a variation in fluorescent polarization caused by binding of a kinase-phosphorylated fluorescent substance to an IMAP-binding reagent.
Each solution was prepared with the 10× assay buffer attached to the kit or a separately prepared assay buffer having the same composition as the assay buffer attached to the kit. An assay buffer was prepared by 10-fold dilution of the 10× assay buffer with distilled water. The assay buffer contains 20 mM HEPES (pH 7.4), 0.01% Tween20, and 2 mM dithiothreitol. A test compound solution was prepared by dilution of the test compound with dimethyl sulfoxide (DMSO) to a concentration 100 times higher than the final concentration and then 25-fold dilution with the assay buffer to a concentration four times higher than the final concentration. An ATP/substrate/Metal solution was prepared by five-fold dilution of the 5×ATP/substrate/Metal solution attached to the kit with the assay buffer. An enzyme solution was prepared by dilution of the CDK4/cyclin D3 attached to the kit with the assay buffer to a concentration twice higher than the final concentration (final concentration of CDK4/cyclin D3: 12.5 to 25 ng/well). A detection reagent was prepared by five-fold dilution of each of 5×IMAP-binding buffer A and 5×IMAP-binding buffer B with distilled water, mixing of IMAP-binding buffer A with IMAP-binding buffer B at a ratio of 85:15, and 400-fold dilution of the IMAP-binding reagent with the mixed buffer.
(§1) The test compound solution (5 μL/well) and the ATP/substrate/Metal solution (5 μL/well) were added to a 384-well plate, and the enzyme solution or the assay buffer (10 μL/well) was added to the plate (total amount of the reaction mixture: 20 μL/well) for initiation of enzymatic reaction. […] The reaction was performed at room temperature for 45 minutes, and the detection reagent (60 μL/well) was then added to the plate, followed by further reaction for 30 minutes at room temperature under light shielding conditions. Subsequently, fluorescent polarization was determined with a microplate reader at an excitation wavelength of 485 nm and an emission wavelength of 535 nm.
The percent inhibition of enzyme activity was calculated for each test compound (note: enzyme activity=100% in the case of addition of the enzyme solution and addition of DMSO instead of the test compound solution, whereas enzyme activity […] in the case of addition of the assay buffer instead of the enzyme solution, and addition of DMSO instead of the test compound solution). The percent inhibition of enzyme activity was fitted to a dose-response curve, to determine a 50% inhibitory concentration against CDK4/cyclin D3.
In each table, “+++” corresponds to IC50<10 nM. “++” 10 nM […] IC50<100 nM, and “+” 100 nM≤IC50.

The next experiment concerns the target T2, CDK2/cyclin A2 (Homo sapiens, UniProt P24941).
T2 construct: purchased Carna Biosciences, Inc. QS S Assist CDK2/Cyclin A2_FP Kit
Nature of the experiment: Human CDK2/cyclin A2 inhibitory activity (QS S Assist CDK2/Cyclin A2_FP Kit, IMAP fluorescent polarization). Format: biochemical. The settings on record: read-out: CDK2 Activity symbol. As to the method: Human CDK2/Cyclin A2 Inhibitory Activity
Each compound was analyzed for CDK2/cyclin A2 inhibitory activity with an assay kit (QS S Assist CDK2/Cyclin A2_FP Kit, available from Carna Biosciences, Inc.). This assay kit determines kinase activity on the basis of the IMAP technology by Molecular Devices. Specifically, the kinase activity is determined through quantification of a variation in fluorescent polarization caused by binding of a kinase-phosphorylated fluorescent substance to an IMAP-binding reagent.
An assay buffer was prepared by 10-fold dilution of the 10× assay buffer attached to the kit with distilled water, and each solution was prepared with the assay buffer. The assay buffer contained 20 mM HEPES (pH 7.4), 0.01% Tween 20, and 2 mM dithiothreitol. A test compound solution was prepared by dilution of the test compound with dimethyl sulfoxide (DMSO) to a concentration 100 times higher than the final concentration and then 25-fold dilution with the assay buffer to a concentration four times higher than the final concentration. An ATP/substrate/Metal solution was prepared by five-fold dilution of the 5×ATP/substrate/Metal solution attached to the kit with the assay buffer. An enzyme solution was prepared by dilution of the CDK2/cyclin A2 attached to the kit with the assay buffer to a concentration twice higher than the final concentration (final concentration of CDK2/cyclin A2: 2.5 ng/well). A detection reagent was prepared by five-fold dilution of 5×IMAP-binding buffer A with distilled water and 400-fold dilution of the IMAP-binding reagent with the diluted buffer.
as §1, with “60” for “45”
The percent inhibition of enzyme activity was calculated for each test compound (note: enzyme activity=100% in the case of addition of the enzyme solution and addition of DMSO instead of the test compound solution, whereas enzyme activity […] in the case of addition of the assay buffer instead of the enzyme solution and addition of DMSO instead of the test compound solution). The percent inhibition of enzyme activity was fitted to a dose-response curve, to determine a 50% inhibitory concentration against CDK2/cyclin A2.
In each table, “+++” corresponds to IC50<10 nM, “++” 10 nM≤IC50<100 nM, and “+” 100 nM≤IC50.

SMILES strings stand for the structures. pIC50: −log10 of the molar value.

T1 sequence (P11802 whole entry): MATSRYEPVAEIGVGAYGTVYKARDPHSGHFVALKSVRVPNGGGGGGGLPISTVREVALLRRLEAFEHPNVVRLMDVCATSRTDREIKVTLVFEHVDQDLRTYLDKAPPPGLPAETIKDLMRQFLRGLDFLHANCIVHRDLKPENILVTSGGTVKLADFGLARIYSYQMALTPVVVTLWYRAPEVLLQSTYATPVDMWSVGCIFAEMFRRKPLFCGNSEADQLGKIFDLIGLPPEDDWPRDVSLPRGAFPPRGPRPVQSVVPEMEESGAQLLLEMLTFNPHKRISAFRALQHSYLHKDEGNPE
T1 sequence (P30281 whole entry partner): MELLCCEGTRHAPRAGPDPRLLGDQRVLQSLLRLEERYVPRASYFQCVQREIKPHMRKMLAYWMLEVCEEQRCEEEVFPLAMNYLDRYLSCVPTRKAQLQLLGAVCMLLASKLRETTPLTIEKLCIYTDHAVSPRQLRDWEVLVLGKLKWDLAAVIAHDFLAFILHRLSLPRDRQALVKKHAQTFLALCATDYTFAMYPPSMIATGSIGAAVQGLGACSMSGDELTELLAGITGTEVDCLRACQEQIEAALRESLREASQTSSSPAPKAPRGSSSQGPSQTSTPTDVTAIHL

With `CC(C)(O)c1cc2cnc(Nc3ccc(N4CCNCC4)cn3)nc2c(N2CCOCC2)n1` [Compound 37], the pIC50 at CDK4/cyclin D3 is 7.00 to 8.00; on CDK2/cyclin A2 it was no more than 7.00.

For `OCCc1cc2cnc(Nc3ccc(N4CCNCC4)cn3)nc2c(N2CCOCC2)n1` [Compound 38], the pIC50 on CDK4/cyclin D3 and on CDK2/cyclin A2 was no more than 7.00 in each case.

Regarding `C[C@@H](O)c1cc2cnc(Nc3ccc(N4CCNCC4)nn3)nc2c(N2CCCC2C(=O)O)n1` (some centres unmarked) [Compound 39], the pIC50 on CDK4/cyclin D3 is greater than 8.00; on CDK2/cyclin A2, no more than 7.00.

For `C[C@@H](O)c1cc2cnc(Nc3ccc(N4CCNCC4)nn3)nc2c(N2CCCC(C(=O)O)C2)n1` (some centres unmarked) [Compound 40], the figures for the pIC50 at CDK4/cyclin D3 and at CDK2/cyclin A2 were greater than 8.00 and no more than 7.00, respectively.

Regarding `C[C@@H](O)c1cc2cnc(Nc3ccc(N4CCNCC4)nn3)nc2c(N2CCCCC2C(=O)O)n1` (some centres unmarked) [Compound 41], the pIC50 on CDK4/cyclin D3 is greater than 8.00; at CDK2/cyclin A2 it was no more than 7.00.

Consider `C[C@@H](O)c1cc2cnc(Nc3ccc(CN4CCNCC4)cn3)nc2c(N2CCCC2C(=O)O)n1` (some centres unmarked) [Compound 42], for which the pIC50 on CDK4/cyclin D3 and on CDK2/cyclin A2 was no more than 7.00 throughout.

For `C[C@@H](O)c1cc2cnc(Nc3ccc(CN4CCN(CCO)CC4)cn3)nc2c(N2CCC2)n1` [Compound 47], the pIC50 at CDK4/cyclin D3 was 7.00 to 8.00; at CDK2/cyclin A2 it was no more than 7.00.

As for `C[C@@H](O)c1cc2cnc(Nc3ccc(CN4CCN(CCO)CC4)cn3)nc2c(N2CCCC2)n1` [Compound 48], the pIC50 on CDK4/cyclin D3 was greater than 8.00; on CDK2/cyclin A2 it was no more than 7.00.

Take `C[C@@H](O)c1cc2cnc(Nc3ccc(CN4CCN(CCO)CC4)cn3)nc2c(N2CCCCC2)n1` [Compound 49]: the pIC50 at CDK4/cyclin D3 was greater than 8.00; at CDK2/cyclin A2 it was no more than 7.00.

On to `C[C@@H](O)c1cc2cnc(Nc3ccc(N4CCNCC4=O)cn3)nc2c(N2CCC2)n1` [Compound 50], for which the values for the pIC50 on CDK4/cyclin D3 and at CDK2/cyclin A2 were 7.00 to 8.00 and no more than 7.00, respectively.

Take `C[C@@H](O)c1cc2cnc(Nc3ccc(N4CCNCC4=O)cn3)nc2c(N2CCCC2)n1` [Compound 51]: the pIC50 on CDK4/cyclin D3 is greater than 8.00; at CDK2/cyclin A2, no more than 7.00.

Turning to `C[C@@H](O)c1cc2cnc(Nc3ccc(N4CCNCC4=O)cn3)nc2c(N2CCCCC2)n1` [Compound 52], the values for the pIC50 on CDK4/cyclin D3 and at CDK2/cyclin A2 were greater than 8.00 and no more than 7.00, respectively.

`Cc1nc(Nc2ncc3cc([C@@H](C)O)nc(N4CCCC4)c3n2)ccc1N1CCN(C)CC1` [Compound 53]: the pIC50 at CDK4/cyclin D3 was greater than 8.00; on CDK2/cyclin A2, no more than 7.00.

In the case of `Cc1nc(Nc2ncc3cc([C@@H](C)O)nc(N4CCCCC4)c3n2)ccc1N1CCN(C)CC1` [Compound 54], the values for the pIC50 on CDK4/cyclin D3 and on CDK2/cyclin A2 were greater than 8.00 and no more than 7.00, respectively.

Regarding `C[C@@H](O)c1cc2cnc(Nc3ccc(CN4CCN(C)CC4)cn3)nc2c(N2CCCC2)n1` [Compound 55], the pIC50 on CDK4/cyclin D3 is greater than 8.00; at CDK2/cyclin A2 it was no more than 7.00.

Consider `C[C@@H](O)c1cc2cnc(Nc3ccc(CN4CCN(C)CC4)cn3)nc2c(N2CCCCC2)n1` [Compound 56], for which the pIC50 at CDK4/cyclin D3 was greater than 8.00; on CDK2/cyclin A2 it was no more than 7.00.

As for `C[C@@H](O)c1cc2cnc(Nc3ccc(CN4CCN(CCO)CC4)cn3)nc2c(N2CC3(CCC3)C2)n1` [Compound 57], the pIC50 is greater than 8.00 at CDK4/cyclin D3 and no more than 7.00 at CDK2/cyclin A2.

As to `C[C@@H](O)c1cc2cnc(Nc3ccc(CN4CCN(CCO)CC4)cn3)nc2c(N2CCOCC2)n1` [Compound 58], the pIC50 at CDK4/cyclin D3 is 7.00 to 8.00; at CDK2/cyclin A2, no more than 7.00.

As to `C[C@@H](O)c1cc2cnc(Nc3ccc(CN4CCN(CCO)CC4)cn3)nc2c(N2CCCCCC2)n1` [Compound 59], the pIC50 was greater than 8.00 on CDK4/cyclin D3 and no more than 7.00 at CDK2/cyclin A2.

For the molecule `C[C@@H](O)c1cc2cnc(Nc3ccc4c(n3)CCN(CCN(C)C)C4)nc2c(N2CCCCC2)n1` [Compound 60], the pIC50 at CDK4/cyclin D3 is greater than 8.00; at CDK2/cyclin A2, no more than 7.00.

Turning to `C[C@@H](O)c1cc2cnc(Nc3ccc4c(n3)CCN(CCN(C)C)C4)nc2c(N2CCC(F)CC2)n1` [Compound 61], the pIC50 is greater than 8.00 at CDK4/cyclin D3 and no more than 7.00 on CDK2/cyclin A2.

For the molecule `C[C@@H](O)c1cc2cnc(Nc3ccc4c(n3)CCNC4)nc2c(N2CCCCC2)n1` [Compound 62], the pIC50 on CDK4/cyclin D3 is greater than 8.00; on CDK2/cyclin A2, no more than 7.00.

Turning to `C[C@@H](O)c1cc2cnc(Nc3ccc4c(n3)CCNC4)nc2c(N2CCC(F)CC2)n1` [Compound 63], the pIC50 at CDK4/cyclin D3 was greater than 8.00; on CDK2/cyclin A2, no more than 7.00.

On to `C[C@@H](O)c1cc2cnc(Nc3ccc(N4CCNCC4=O)cn3)nc2c(N2CCC(F)(F)CC2)n1` [Compound 64], for which the pIC50 was greater than 8.00 on CDK4/cyclin D3 and no more than 7.00 at CDK2/cyclin A2.

Take `C[C@@H](O)c1cc2cnc(Nc3ccc(CN4CCC(O)CC4)cn3)nc2c(N2CCCCC2)n1` [Compound 65]: the pIC50 at CDK4/cyclin D3 is greater than 8.00; on CDK2/cyclin A2, no more than 7.00.

Regarding `C[C@@H](O)c1cc2cnc(Nc3ccc(CN4CCC(O)CC4)cn3)nc2c(N2CCCC2)n1` [Compound 66], the pIC50 is 7.00 to 8.00 at CDK4/cyclin D3 and no more than 7.00 at CDK2/cyclin A2.

Take `C[C@@H](O)c1cc2cnc(Nc3ccc(CN4CCC(O)CC4)cn3)nc2c(N2CCOCC2)n1` [Compound 67]: the pIC50 at CDK4/cyclin D3 was 7.00 to 8.00; on CDK2/cyclin A2, no more than 7.00.

Take `C[C@@H](O)c1cc2cnc(Nc3ccc(CN4CCC(CO)CC4)cn3)nc2c(N2CCCCC2)n1` [Compound 68]: the pIC50 at CDK4/cyclin D3 is greater than 8.00; at CDK2/cyclin A2 it was no more than 7.00.

As for `C[C@@H](O)c1cc2cnc(Nc3ccc(CN4CCC(CO)CC4)cn3)nc2c(N2CCCC2)n1` [Compound 69], the pIC50 on CDK4/cyclin D3 was greater than 8.00; on CDK2/cyclin A2, no more than 7.00.

In the case of `C[C@@H](O)c1cc2cnc(Nc3ccc(CN4CCC(CO)CC4)cn3)nc2c(N2CCOCC2)n1` [Compound 70], the figures for the pIC50 at CDK4/cyclin D3 and on CDK2/cyclin A2 were 7.00 to 8.00 and no more than 7.00, respectively.

On to `C[C@@H](O)c1cc2cnc(Nc3ccc(N4CCN(C)CC4=O)cn3)nc2c(N2CCCCC2)n1` [Compound 72], for which the pIC50 at CDK4/cyclin D3 was greater than 8.00; on CDK2/cyclin A2, no more than 7.00.

As to `C[C@@H](O)c1cc2cnc(Nc3ccc(N4CCN(C)CC4=O)cn3)nc2c(N2CCCC2)n1` [Compound 73], the pIC50 at CDK4/cyclin D3 is 7.00 to 8.00; on CDK2/cyclin A2, no more than 7.00.

On to `C[C@@H](O)c1cc2cnc(Nc3ccc(N4CCN(C)CC4=O)cn3)nc2c(N2CCOCC2)n1` [Compound 74], for which the values for the pIC50 at CDK4/cyclin D3 and on CDK2/cyclin A2 were 7.00 to 8.00 and no more than 7.00, respectively.

As for `C[C@@H](O)c1cc2cnc(Nc3ccc(CN4CCN(CCO)CC4)cn3)nc2c(N2CCCC2(C)C)n1` [Compound 75], the pIC50 at CDK4/cyclin D3 was greater than 8.00; on CDK2/cyclin A2, 7.00 to 8.00.

The record behind these values is patent US11084814B2, “Pyrido[3, 4-d]pyrimidine derivative and pharmaceutically acceptable salt thereof” (Teijin Pharma Limited, priority 2016, dated 2021).
